From patent publication US12109204B2, “Methods for treating muscular dystrophies” (The Regents of the University of California, priority 2018, dated 2024) come the findings set out here.

The subject of the assay is SSPN protein. The assay is described as follows: SSPN protein immunoblot in mdx myotubes. Type of assay: cell-based, murine. The note with it: mdx cells, 48 hours, immunoblot normalized to GAPDH (FIG. 10f). As to the method:
C2C12 cells (American Type Culture Collection) were grown at 37° C. with 5% CO2 in growth media containing DMEM (Gibco) with 20% FBS (Sigma-Aldrich). Upon reaching confluency, the media was replaced with differentiation media containing DMEM with 2% horse serum (Sigma-Aldrich). Conditionally immortalized H2K mdx myoblast cells with a nonsense mutation in exon 23 of dystrophin were a gift from Terrance Partridge, Ph.D. (Children's National Medical Center, Washington, D.C.). Cells were allowed to proliferate on 0.01% gelatin (Sigma-Aldrich) coated plates at 33° C. with 5% CO2 with growth media containing DMEM, 20% HI-FBS (Invitrogen), 2% L-glutamine (Sigma-Aldrich), 2% chicken embryo extract (Accurate Chemical), 1% penicillin-streptomycin (Sigma-Aldrich), and 20U/ml of fresh interferon gamma (Gibco). […] The supernatant was collected, quantified for protein concentration using the DC protein assay (Bio-Rad), and normalized to 2 mg/ml in water and Laemmli sample buffer with a final concentration of 10% glycerol (Sigma-Aldrich), 5% beta-mercaptoethanol (Sigma-Aldrich), 3% sodium dodecyl sulfate (Sigma-Aldrich), and 0.05% bromophenol blue (Sigma-Aldrich). […] Autoradiography films were developed using a SRX-101A tabletop processor (Konica Minolta), scanned to a digital file, and analyzed by densitometry of bands using ImageJ version 1.51s. […]

For `CCOC(=O)C1=C(C)NC(C)=C(C(=O)OC)C1c1cccc(Cl)c1Cl` (centres unmarked) [Felodipine, 5-O-ethyl 3-O-methyl 4-(2,3-dichlorophenyl)-2,6-dimethyl-1,4-dihydropyridine-3,5-dicarboxylate], the SSPN protein levels entry was “increases sarcospan protein levels”. Further, the SSPN protein levels entry (listed as felodipine) was “increased SSPN protein levels”.
